Measurements: patent publication US8569336B2, “Compounds for the treatment of inflammatory disorders” (priority 2008, dated 2013)
pIC50, pKi: −log10 of the molar value. Read-outs that look alike come from different tables or passages of the source.

Assays:
[1] = target: T1, purified catalytic domain of recombinant human TACE (rhTACEc) (Homo sapiens, UniProt P78536, N452Q/S266A); assay: TACE kinetic assay: cleavage of internally quenched peptide substrate TNF-FRET 2 (Ki); format: biochemical; conditions: TNF-FRET 2 substrate
T1 construct: 6xHis (C); made in house; host or cells: baculovirus/Hi5 insect cells
T1 sequence (P78536 215-477 S266A/N452Q): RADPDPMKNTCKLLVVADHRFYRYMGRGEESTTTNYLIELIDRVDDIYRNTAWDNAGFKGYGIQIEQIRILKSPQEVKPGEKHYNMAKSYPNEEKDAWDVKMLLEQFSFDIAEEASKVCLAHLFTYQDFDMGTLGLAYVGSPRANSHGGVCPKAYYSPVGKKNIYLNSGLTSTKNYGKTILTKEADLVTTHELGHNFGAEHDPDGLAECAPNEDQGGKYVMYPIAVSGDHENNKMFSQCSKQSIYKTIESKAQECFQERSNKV

[2] = tested on: TNF-α production from human whole blood; assay: Inhibition of TNF-α production from human whole blood (hWBA), LPS stimulated, ELISA; format: cell-based; conditions: Homo sapiens, LPS-stimulated human whole blood, TNF-α by ELISA; read-out: hWBA (IC50)

| pKi ([1]; read-out: Ki) | pIC50 [2] | Structure (SMILES) | pKi ([1]; Ki) |
| --- | --- | --- | --- |
| 9.07 | 6.56 | COc1ccc2c(c1)C(=O)N(C[C@@]1(c3cc4nc(N(CCN(C)C)c5cn[nH]c5)ccc4o3)NC(=O)NC1=O)C2 [Compound 1704] |  |
| 8.97 | 6.66 | COc1ccc2c(c1F)C(=O)N(C[C@@]1(c3cc4nc(N5CCN(C)CC5)c(F)cc4o3)NC(=O)NC1=O)C2 [Compound 1710] |  |
| 9.08 | 6.72 | COc1ccc2c(c1F)C(=O)N(C[C@@]1(c3cc4nc(N5CCCNCC5)ccc4o3)NC(=O)NC1=O)C2 [Compound 1712] |  |
| 9.12 | 6.82 | COc1ccc2c(c1F)C(=O)N(C[C@@]1(c3cc4nc(N5CCCN(C)CC5)ccc4o3)NC(=O)NC1=O)C2 [Compound 1713] |  |
| 9.07 | 6.57 | COc1ccc2c(c1F)C(=O)N(C[C@@]1(c3cc4nc(N(CCN(C)C)c5cn[nH]c5)ccc4o3)NC(=O)NC1=O)C2 [Compound 1714] |  |
| 9.21 | 6.74 | COc1ccc2c(c1F)C(=O)N(C[C@@]1(c3cc4nc(N(c5cn[nH]c5)C5CCN(C)CC5)ccc4o3)NC(=O)NC1=O)C2 [Compound 1717] |  |
| 9.32 | 6.52 | COc1ccc2c(c1F)C(=O)N(C[C@@]1(c3cc4nc(-c5ccnc(N6CCN(C(=O)C(F)(F)F)CC6)c5)ccc4o3)NC(=O)NC1=O)C2 [Compound 1718] |  |
| 9.62 | 6.83 | COc1ccc2c(c1F)C(=O)N(C[C@@]1(c3cc4nc(-c5ccnc(N6CCNCC6)c5)ccc4o3)NC(=O)NC1=O)C2 [Compound 1719] |  |
| 8.58 | 6.25 | COc1ccc2c(c1)C(=O)N(C[C@@]1(c3cc4nc(NC5CCNCC5)ccc4o3)NC(=O)NC1=O)C2 [Compound 1723] |  |
| 8.88 | 6.73 | COc1ccc2c(c1F)C(=O)N(C[C@@]1(c3cc4nc(N(c5cn[nH]c5)C5CCNCC5)ccc4o3)NC(=O)NC1=O)C2 [Compound 1724] |  |
| 9.22 | 7.01 | COc1ccc2c(c1F)C(=O)N(C[C@@]1(c3cc4nc(N5CCNCC5)ccc4o3)NC(=O)NC1=O)C2 [Compound 1725] |  |
| 8.83 | < 5.00 | COc1ccc2c(c1F)C(=O)N(C[C@@]1(c3cc4nc(-c5ccc(N(C)C)nc5)ccc4o3)NC(=O)NC1=O)C2 [Compound 1726] |  |
| 10.32 | 6.81 | CCN1CCCN(c2ccc3oc([C@]4(CN5Cc6ccc(OC)c(F)c6C5=O)NC(=O)NC4=O)cc3n2)CC1 [Compound 1727] |  |
| 9.33 | 6.55 | COc1ccc2c(c1F)C(=O)N(C[C@@]1(c3cc4nc(Nc5cccnc5)ccc4o3)NC(=O)NC1=O)C2 [Compound 1728] |  |
| 9.37 | 6.68 | COc1ccc2c(c1)C(=O)N(C[C@@]1(c3cc4nc(Nc5cn[nH]c5)ccc4o3)NC(=O)NC1=O)C2 [Compound 1729] |  |
| 9.22 | 6.76 | COc1ccc2c(c1F)C(=O)N(C[C@@]1(c3cc4nc(Nc5cn[nH]c5)ccc4o3)NC(=O)NC1=O)C2 [Compound 1730] |  |
| 8.88 | 5.38 | COc1ccc2c(c1)C(=O)N(C[C@@]1(c3cc4nc(Nc5cncc(F)c5)ccc4o3)NC(=O)NC1=O)C2 [Compound 1731] |  |
| 8.72 | 6.48 | COc1ccc2c(c1)C(=O)N(C[C@@]1(c3cc4nc(Nc5ccc(-c6cn[nH]c6)cn5)ccc4o3)NC(=O)NC1=O)C2 [Compound 1732] |  |
| 7.27 | < 5.00 | O=C1NC(=O)[C@](CN2Cc3ccc(O)c(I)c3C2=O)(c2cc3ncccc3o2)N1 [Compound 1736] |  |
| 8.24 | < 5.00 | C#Cc1c(O)ccc2c1C(=O)N(C[C@@]1(c3cc4ncccc4o3)NC(=O)NC1=O)C2 [Compound 1737] |  |
| 8.85 | < 5.00 | COc1ccc2c(c1Br)C(=O)N(C[C@@]1(c3cc4ncccc4o3)NC(=O)NC1=O)C2 [Compound 1738] |  |
| 10.15 | 5.34 | COc1ccc2c(c1)C(=O)N(C[C@@]1(c3cc4c(ccc5sc(C)nc54)o3)NC(=O)NC1=O)C2 [Compound 1739] |  |
| 9.66 | 6.64 | COc1ccc2c(c1F)C(=O)N(C[C@@]1(c3cc4c(ccc5sc(N)nc54)o3)NC(=O)NC1=O)C2 [Compound 1741] |  |
| 8.44 | 5.43 | Cn1cc(-c2ccc3c(c2)C(=O)N(C[C@@]2(c4cc5ncccc5o4)NC(=O)NC2=O)C3)cn1 [Compound 1742] |  |

| pKi ([1]; read-out: Ki) | pIC50 [2] | Structure (SMILES) | pKi ([1]; Ki) |
| --- | --- | --- | --- |
| 9.24 | 6.34 | COc1ccc2c(c1)C(=O)N(C[C@@]1(c3cc4nc(-c5cc[nH]c5)ccc4o3)NC(=O)NC1=O)C2 [Compound 1900] |  |
| 9.55 | 6.00 | COc1ccc2c(c1)C(=O)N(C[C@@]1(c3cc4nc(-c5cccc(O)c5)ccc4o3)NC(=O)NC1=O)C2 [Compound 1902] |  |
| 9.32 | 6.61 | COC(=O)c1ccc2oc([C@]3(CN4Cc5ccc(OC)c(F)c5C4=O)NC(=O)NC3=O)cc2n1 [Compound 1903] |  |
| 9.21 | 6.88 | COc1ccc2c(c1F)C(=O)N(C[C@@]1(c3cc4nc(C(N)=O)ccc4o3)NC(=O)NC1=O)C2 [Compound 1904] |  |
| 9.11 | 6.22 | CCNc1nnc(-c2ccc3oc([C@]4(CN5Cc6ccc(OC)cc6C5=O)NC(=O)NC4=O)cc3n2)o1 [Compound 1906] |  |
| 8.88 | 6.50 | COc1ccc2c(c1)C(=O)N(C[C@@]1(c3cc4nc(C(=O)NC5CCN(C)CC5)ccc4o3)NC(=O)NC1=O)C2 [Compound 1911] |  |
| 8.65 | 5.49 | COc1ccc2c(c1)C(=O)N(C[C@@]1(c3cc4ncc(CNCc5ccccc5)cc4o3)NC(=O)NC1=O)C2 [Compound 1912] |  |
| 7.58 | 4.00 | COc1ccc2c(c1)C(=O)N(CC1([C@H]3C[C@@H](c4ccccc4)C3)NC(=O)NC1=O)C2 (stereo partly drawn) [Compound 1914] |  |
| 8.00 | 4.00 | COc1ccc2c(c1)C(=O)N(CC1([C@H]3C[C@H](c4ccccc4)C3)NC(=O)NC1=O)C2 (stereo partly drawn) [Compound 1915] |  |
| 9.09 | 6.51 | CCNc1nnc(-c2ccc3oc([C@]4(CN5Cc6ccc(OC)c(F)c6C5=O)NC(=O)NC4=O)cc3n2)o1 [Compound 1916] |  |
| 9.30 | 5.87 | COc1ccc2c(c1F)C(=O)N(C[C@@]1(c3cc4nc(C)c(Br)cc4o3)NC(=O)NC1=O)C2 [Compound 1917] |  |
| 8.61 | 4.47 | COc1ccc2c(c1OC)C(=O)N(C[C@@]1(c3cc4nc(C)c(Br)cc4o3)NC(=O)NC1=O)C2 [Compound 1918] |  |
| 8.67 | 6.17 | CCN1CCN(c2cc3oc([C@]4(CN5Cc6ccc(OC)c(F)c6C5=O)NC(=O)NC4=O)cc3nc2C)CC1 [Compound 1920] |  |
| 9.92 | 6.44 | COc1ccc2c(c1)C(=O)N(C[C@@]1(c3cc4nc(C(=O)NC5CC5)ccc4o3)NC(=O)NC1=O)C2 [Compound 1926] |  |
| 9.06 | 6.25 | COc1ccc2c(c1)C(=O)N(C[C@@]1(c3cc4nc(C(=O)NCCN(C)C)ccc4o3)NC(=O)NC1=O)C2 [Compound 1927] |  |
| 9.28 | 6.08 | COC(=O)c1cnc2cc([C@]3(CN4Cc5ccc(OC)cc5C4=O)NC(=O)NC3=O)oc2c1 [Compound 1928] |  |
| 9.25 | 6.49 | COc1ccc2c(c1)C(=O)N(C[C@@]1(c3cc4ncc(C(=O)NC5CC5)cc4o3)NC(=O)NC1=O)C2 [Compound 1931] |  |
| 8.66 | 6.72 | COc1ccc2c(c1)C(=O)N(C[C@@]1(c3cc4nc(NS(C)(=O)=O)ccc4o3)NC(=O)NC1=O)C2 [Compound 1937] |  |
| 8.95 | 6.17 | CCNC(=O)Nc1ccc2oc([C@]3(CN4Cc5ccc(OC)cc5C4=O)NC(=O)NC3=O)cc2n1 [Compound 1939] |  |
| 9.12 | 6.18 | COc1ccc2c(c1)C(=O)N(C[C@@]1(c3oc4cccnc4c3-c3ncccc3O)NC(=O)NC1=O)C2 [Compound 1940] |  |
| 9.23 | 6.22 | COc1ccc2c(c1)C(=O)N(C[C@@]1(c3cc4ncc(CO)cc4o3)NC(=O)NC1=O)C2 [Compound 1941] |  |
| 9.27 | 6.13 | COc1ccc2c(c1)C(=O)N(C[C@@]1(c3cc4ncc(-c5ncc[nH]5)cc4o3)NC(=O)NC1=O)C2 [Compound 1943] |  |
| 9.16 | 5.65 | CCNC(=O)OCc1cnc2cc([C@]3(CN4Cc5ccc(OC)cc5C4=O)NC(=O)NC3=O)oc2c1 [Compound 1944] |  |
| 9.16 | 6.14 | COc1ccc2c(c1)C(=O)N(C[C@@]1(c3cc4nc(CO)ccc4o3)NC(=O)NC1=O)C2 [Compound 1945] |  |

| Structure (SMILES) | pKi ([1]; read-out: Ki) | pIC50 [2] | pKi ([1]; Ki) |
| --- | --- | --- | --- |
| COc1ccc2c(c1)C(=O)N(C[C@@]1(c3cc4nc(-c5ccnc(N6CCNCC6)c5)ccc4o3)NC(=O)NC1=O)C2 [Compound 1720] |  | 6.65 | 9.51 |
| O=C1NC(=O)[C@](CN2Cc3ccc(O)c(F)c3C2=O)(c2cc3ncccc3o2)N1 [Compound 1721] |  | < 5.00 | 8.79 |
| COc1ccc2c(c1)C(=O)N(C[C@@]1(c3cc4nc(N(c5cn[nH]c5)C5CCNCC5)ccc4o3)NC(=O)NC1=O)C2 [Compound 1722] |  | 7.03 | 9.41 |
| O=C1NC(=O)[C@](CN2Cc3ccc(O)cc3C2=O)(c2cc3ncccc3o2)N1 [Compound 1735] |  | 5.42 | 8.82 |
| Cc1ccc2c(c1)C(=O)N(C[C@@]1(c3cc4ncccc4o3)NC(=O)NC1=O)C2 [Compound 1740] |  | < 5.00 | 8.54 |
| COc1ccc2c(c1F)C(=O)N(C[C@@]1(c3cc4cc5sc(N)nc5cc4o3)NC(=O)NC1=O)C2 [Compound 1743] |  | 6.63 | 9.85 |
| COc1ccc2c(c1F)C(=O)N(C[C@@]1(c3cc4nc(N5CCOCC5)c(F)cc4o3)NC(=O)NC1=O)C2 [Compound 1913] |  | 6.18 | 9.28 |
| COc1ccc2c(c1)C(=O)N(C[C@@]1(c3cc4ncc(C(N)=O)cc4o3)NC(=O)NC1=O)C2 [Compound 1929] |  | 6.76 | 9.43 |
| COc1ccc2c(c1)C(=O)N(C[C@@]1(c3cc4ncc(C5=NCCN5)cc4o3)NC(=O)NC1=O)C2 [Compound 1942] |  | 5.41 | 8.68 |
